In the assay the test system is TRPV ion channels. As to the kind of experiment: TRPV ion channel activity: 2-APB-induced intracellular calcium change in f11 nociceptive sensory cells (Fluo-4-AM). As to conditions: f11 cell lines pre-treated with the compound for 24 hours, then 2-APB. The format is cell-based, white rats. Here is the method: To investigate the activity of the compound of Formula 1 isolated in Example 1, pain relief effects were evaluated. The pain relief was confirmed by identifying intracellular calcium levels and signaling pathways.
After f11 nociceptive sensory cell lines in white rats incubated with the compound of Formula 1 to 50% confluence for 24 hours were pretreated, TRPV ion channel activities were measured. The f11 cell lines were treated with 2-APB (2-aminoethoxydiphenyl borate) as a pre-activator for TRPV ion channels, and intracellular calcium changes, which are triggered in response to the 2-APB treatment, were evaluated using a Fluo-4-AM fluorescent dye on a real time basis.
In general terms: A change in cytosolic calcium serves as a functional read-out for many receptors and channels.

Results on one compound are retold here after patent publication US20190125704A1, “PAIN RELIEF COMPOSITION” (priority 2016, published 2019).

Values joined by “and” are separate entries in the source; they are usually repeats but may differ in a detail not shown here. Equal entries are not always repeated.

Take `CC(C)c1ccc2c(c1)C=C[C@H]1[C@](C)(C(=O)O)CCC[C@]21C` [Formula 1, abieta-6,8,11,13-tetraaen-18-oic acid]: the “increase in the intracellular calcium level induced by 2-APB” value (Fluo-4-AM fluorescent dye, real time) is listed as “strongly inhibited”. Also, under “Fluo-4-AM, compared with untreated control group”, the “intracellular calcium level after 2-APB treatment (tabulated data of FIG. 8, individual values)” value is 1.1293 and 1.1714 and 1.1656 and 1.434 and 1.8663 and 1.3893 and 1.1031 and 1.2503 and 1.4131 and 1.3008 and 1.2251 and 1.1536 and 1.125 and 1.1572.
